# Measured values: US20200087248A1, “Fluoroallylamine Derivative And Use Thereof” (SICHUAN KELUN-BIOTECH BIOPHARMACEUTICAL CO., LTD., priority 2017, published 2020)
# Where a name gives a salt, the structure may show the parent alone.
# What was measured:
# VAP-1 = molecular target: T1, VAP-1 (Homo sapiens, UniProt Q16853); test: Inhibition of the enzymatic activity of VAP-1 in vitro (Amplex Red); format: biochemical; details: VAP-1 protein about 20 nM, 10 min pre-incubation, benzylamine substrate; read-out: IC50, inhibition against the enzymatic activity of VAP-1
# T1 construct: purchased R&D Systems
# T1 sequence (Q16853 1-763): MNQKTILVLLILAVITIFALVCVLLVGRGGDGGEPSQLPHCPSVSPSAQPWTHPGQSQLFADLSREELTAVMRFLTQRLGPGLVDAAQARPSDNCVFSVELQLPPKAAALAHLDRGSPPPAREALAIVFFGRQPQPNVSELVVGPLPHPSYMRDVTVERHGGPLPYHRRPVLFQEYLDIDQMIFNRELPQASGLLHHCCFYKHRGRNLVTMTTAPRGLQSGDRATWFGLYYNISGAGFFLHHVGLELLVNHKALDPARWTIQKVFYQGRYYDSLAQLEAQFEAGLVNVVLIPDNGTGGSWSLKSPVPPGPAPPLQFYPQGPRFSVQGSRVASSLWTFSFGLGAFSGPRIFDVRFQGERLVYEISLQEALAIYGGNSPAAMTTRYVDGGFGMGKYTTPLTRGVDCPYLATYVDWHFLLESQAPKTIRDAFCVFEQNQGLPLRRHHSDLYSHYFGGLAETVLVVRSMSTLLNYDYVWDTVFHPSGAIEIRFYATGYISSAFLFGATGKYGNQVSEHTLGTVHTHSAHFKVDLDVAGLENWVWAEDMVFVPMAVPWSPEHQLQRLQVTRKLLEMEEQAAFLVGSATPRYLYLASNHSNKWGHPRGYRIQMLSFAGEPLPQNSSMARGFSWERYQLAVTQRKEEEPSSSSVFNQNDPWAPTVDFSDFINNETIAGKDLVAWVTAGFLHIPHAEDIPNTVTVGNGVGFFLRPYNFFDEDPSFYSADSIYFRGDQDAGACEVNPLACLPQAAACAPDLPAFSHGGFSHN
# Experimental: Inhibition Experiment Against the Enzymatic Activity of VAP-1(Vascular Adhesion Protein 1) in vitro
# Test kit: Amplex® Red Monoamine Oxidase Assay, Manufacturer: ThermoFisher
# Reaction buffer solution: 50 mM PBS, pH 7.4
# Enzyme: VAP-1, Manufacturer: R&D Systems
# VAP-1 protein (about 20 nM) and different concentrations of the test compound were pre-incubated at room temperature for 10 minutes, followed by an addition of […] benzylamine hydrochloride, 1 U/mL HRP and 200 μM Amplex Red reagent according to the specification of the test kit to start the reaction. The reaction plate was placed in the enzyme marker, and in kinetic mode, fluorescence signals were measured at Ex/Em=540/590 nm. The relative inhibition activity of each concentration group was calculated, wherein the ratio (slope) of fluorescence signal to reaction time in the linear range is the reaction rate, the vehicle group (DMSO) is the negative control, and the reaction buffer solution group (without enzymes and the compounds) is the blank control. The half inhibition concentration (IC50) of the compound was calculated according to four-parameter model fitting curve.
# hERG = molecular target: T2, hERG (Homo sapiens, UniProt Q12809); test: hERG fluorescence polarization inhibition experiment; details: hERG cell membrane, 25° C. 2 hours, read-out: hERG (IC50 range, competitive binding vs tracer)
# T2 construct: purchased ThermoFisher; host or cells: hERG cell membrane supplied with the kit
# Experimental: hERG (Ether-a-go-go-related Gene Potassium Channel) Inhibition Experiment
# Reagent: Predictor™ hERG Fluorescence Polarization Assay Kit, Manufacturer: ThermoFisher
# The above test kit was used to evaluate the potential of the compound for inducing heart QT prolongation. According to the method as indicated in the specification of the test kit, the test compound, the positive control (E4031) and negative control (Experimental buffer solution) in the kit were added to a microwell plate containing hERG cell membrane, and then a tracer having high affinity to hERG was added. The microwell plate was then incubated at 25° C. for 2 hours, a BMG PHAREStar polyfunctional enzyme marker was used to test the variations in the fluorescent polarization value. By calculating the percent inhibition rates (%) at different concentrations, the range of the half inhibition concentration (IC50) was determined:
# Percent inhibition rate (%)=(1-(mP of the test compound-mP of 30 μM E4031)/(mP of experimental buffer solution-mP of 30 μM E4031))*100.
# T2 sequence (Q12809 whole entry): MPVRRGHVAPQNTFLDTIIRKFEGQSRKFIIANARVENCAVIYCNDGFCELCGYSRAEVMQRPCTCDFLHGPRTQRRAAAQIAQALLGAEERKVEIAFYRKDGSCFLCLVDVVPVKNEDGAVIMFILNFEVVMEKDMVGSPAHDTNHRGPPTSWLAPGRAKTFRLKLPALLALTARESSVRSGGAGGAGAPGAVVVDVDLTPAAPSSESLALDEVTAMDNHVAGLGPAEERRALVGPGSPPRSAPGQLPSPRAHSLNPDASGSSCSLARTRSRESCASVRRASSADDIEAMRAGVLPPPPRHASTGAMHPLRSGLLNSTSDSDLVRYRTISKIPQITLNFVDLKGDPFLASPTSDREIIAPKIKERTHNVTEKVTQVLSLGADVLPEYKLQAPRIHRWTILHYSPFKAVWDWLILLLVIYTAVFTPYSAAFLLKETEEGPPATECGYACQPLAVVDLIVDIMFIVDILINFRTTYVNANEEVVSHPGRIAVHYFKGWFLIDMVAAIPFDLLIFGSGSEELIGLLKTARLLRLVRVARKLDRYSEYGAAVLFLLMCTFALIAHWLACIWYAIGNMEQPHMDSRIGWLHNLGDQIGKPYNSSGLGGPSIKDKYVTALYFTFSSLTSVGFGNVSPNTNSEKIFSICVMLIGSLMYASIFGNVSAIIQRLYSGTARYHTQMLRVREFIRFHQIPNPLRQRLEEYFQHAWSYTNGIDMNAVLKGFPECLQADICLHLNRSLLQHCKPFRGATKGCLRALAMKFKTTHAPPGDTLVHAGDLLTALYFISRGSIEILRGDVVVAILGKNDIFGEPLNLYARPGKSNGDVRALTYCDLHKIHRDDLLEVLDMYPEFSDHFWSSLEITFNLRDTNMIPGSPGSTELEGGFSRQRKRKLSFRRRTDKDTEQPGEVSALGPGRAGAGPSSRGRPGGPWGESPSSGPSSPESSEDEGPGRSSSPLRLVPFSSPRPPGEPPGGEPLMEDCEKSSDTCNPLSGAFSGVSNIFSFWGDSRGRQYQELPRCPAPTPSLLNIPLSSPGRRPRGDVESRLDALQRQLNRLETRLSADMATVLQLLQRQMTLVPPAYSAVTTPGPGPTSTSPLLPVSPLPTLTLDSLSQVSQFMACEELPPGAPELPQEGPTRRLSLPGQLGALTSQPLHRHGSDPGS
SMILES,IC50 (VAP-1) [nM],IC50 (hERG) [nM]
"NCC(=CF)COc1ccc(C(=O)N2CCc3ccccc3C2)cc1F [TM72, (4-((2-aminomethyl-3-fluoroallyl)oxy)-3-fluorophenyl)-(3,4-tetrahydroisoquinoline-2(1H)-yl)methanone trifluoroacetate]",3.4 ± 0.5,–
"NCC(=CF)COc1ccc(C(=O)Nc2cccc3ccccc23)cc1 [TM8, 4-((2-(aminomethyl)-3-fluoroallyl)oxy)-N-(naphthyl)benzoamide trifluoroacetate]",2.2 ± 0.1,–
"NC/C(=C\F)COc1ccc2c(c1)CN(Cc1ccc(Cl)cc1)C2=O [TM33-E, (E)-5-((2-aminomethyl-3-fluoroallyl)oxy)-2-(4-chlorobenzyl)isoindolin-1-one]",4.9 ± 0.5,> 10000
"NC/C(=C/F)COc1ccc(C(=O)N2CCC(c3ccccc3)CC2)cc1 [TM44-Z, (Z)-(4-((2-aminomethyl-3-fluoroallyl)oxy)phenyl)-(4-phenylpiperidine-1-yl) methanone trifluoroacetate]",9.7 ± 0.9,–
"NCC(=CF)COc1ccc(C(=O)Nc2ccccc2)cc1 [TM1, N-phenyl-4-((2-aminomethyl-3-fluoroallyl)oxy)-benzamide trifluoroacetate]",0.5,> 10000
"NC/C(=C\F)COc1ccc(C(=O)N2CCC(c3ccccc3)CC2)cc1F [TM48-E, (E)-(4-((2-(aminomethyl)-3-fluoroally)oxy)-3-fluorophenyl)-(4-phenylpiperidin-1-yl)methanone trifluoroacetate]",9.2 ± 1.1,–
"Cc1ccc(N(C)C(=O)c2ccc(OCC(=CF)CN)cc2)cc1 [TM67, N-methyl-N-p-methylphenyl-4-((2-aminomethyl-3-fluoroallyl)oxy)-benzamide trifluoroacetate]",11.5 ± 1.3,> 30000
"NC/C(=C\F)COc1ccc(-c2nc3ccc(Cl)cc3s2)cc1F [TM74-E, (E)-2-(4-(6-chloro-benzothiazol-2-yl)-2-fluorophenoxymethyl)-3-fluoroallylamine trifluoroacetate trifluoroacetate]",3.2 ± 0.2,–
"NC/C(=C/F)COc1ccc(-c2nc3ccc(Cl)cc3s2)cc1F [TM74-Z, (Z)-2-(4-(6-chloro-benzothiazol-2-yl)-2-fluorophenoxymethyl)-3-fluoroallylamine trifluoroacetate trifluoroacetate]",5.3 ± 0.2,–
"NC/C(=C/F)COc1ccc(C(=O)N[C@H]2CCCc3ccccc32)cc1 [TM63-Z, (Z)-(S)-N-(1,2,3,4-tetrahydro-1-naphthyl)-4-((2-aminomethyl-3-fluoroallyl)oxy)-benzamide trifluoroacetate]",4.4 ± 0.8,> 10000
"NC/C(=C\F)COc1ccc(C(=O)N2CCC(c3ccccc3)CC2)cc1 [TM44-E, (E)-(4-((2-aminomethyl-3-fluoroallyl)oxy)phenyl)-(4-phenylpiperidine-1-yl) methanone trifluoroacetate]",12.9 ± 4.4,–
"NC/C(=C\F)COc1ccc2c(c1)CCNC2=O [TM26-E, (E)-6-((2-aminomethyl-3-fluoroallyl)oxy)-3,4-dihydroisoquinolin-1(2H)-one trifluoroacetate]",9.9 ± 1.2,> 10000
"CN(C)c1cccc(NC(=O)c2ccc(OCC(=CF)CN)cc2)c1 [TM62, N-(3-dimethylaminophenyl)-4-(2-aminomethyl-3-fluoroallyloxy)-benzamide trifluoroacetate]",1.8 ± 0.2,> 30000
"NC/C(=C/F)COc1ccc(-c2nc3ccc(Cl)cc3s2)cc1 [TM41-Z, (Z)-2-(4-(6-chloro-benzothiazol-2-yl)phenoxymethyl)-3-fluoroallylamine trifluoroacetate]",3.5 ± 0.4,–
"NC/C(=C\F)COc1ccc(C(=O)N[C@H]2CCCc3ccccc32)cc1 [TM63-E, (E)-(S)-N-(1,2,3,4-tetrahydro-1-naphthyl)-4-(2-aminomethyl-3-fluoroallyl)oxy)-benzamide trifluoroacetate]",5.7 ± 0.8,> 10000
"NC/C(=C/F)COc1ccc2c(c1)CN(Cc1ccc(Cl)cc1)C2=O [TM33-Z, (Z)-5-((2-aminomethyl-3-fluoroallyl)oxy)-2-(4-chlorobenzyl)isoindolin-1-one]",6.3 ± 1.2,–
"NCC(=CF)COc1ccc(-c2ncccn2)cc1 [TM39, 2-(4-(2-pyrimidyl)phenoxymethyl)-3-fluoroallylamine trifluoroacetate]",1 ± 0.1,> 30000
"NC/C(=C/F)COc1ccc(C(=O)N2CCc3ccccc3C2)cc1 [TM45-Z, (Z)-(4-((2-aminomethyl-3-fluoroallyl)oxy)phenyl)-(3,4-dihydroiso-quinoline-2(1H)-yl)methanone trifluoroacetate]",1.1 ± 0.1,> 10000
"NCC(=CF)COc1ccc(C(=O)N2CCC(c3ccccc3)CC2)cc1F [TM48, (4-((2-aminomethyl-3-fluoroallyl)oxy)-3-fluorophenyl)-(4-phenylpiperidin-1-yl)methanone trifluoroacetate]",6.5 ± 0.5,–
"NC/C(=C/F)COc1ccc(C(=O)N2CCC(c3ccccc3)CC2)cc1F [TM48-Z, (Z)-(4-((2-(aminomethyl)-3-fluoroallyl)oxy)-3-fluorophenyl)-(4-phenylpiperidin-1-yl)methanone trifluoroacetate]",10.6 ± 1.4,–
"NC/C(=C\F)COc1ccc(C(=O)Nc2ccc(F)cc2)cc1Cl [TM65-E, (E)-N-(4-fluorophenyl)-4-((2-aminomethyl-3-fluoroallyl)oxy)-3-chloro-benzamide trifluoroacetate]",4.1 ± 0.7,–
"NC/C(=C\F)COc1ccc(-c2nc3ccc(Cl)cc3s2)cc1 [TM41-E, (E)-2-(4-(6-chloro-benzothiazol-2-yl)phenoxymethyl)-3-fluoroallylamine trifluoroacetate]",3.1 ± 0.5,–
"NCC(=CF)COc1ccc(C(=O)N2CCc3ccccc3[C@@H]2c2ccccc2)cc1 [TM69, (S)-(4-(2-aminomethyl)-3-fluoroallyloxy)phenyl)-(1-phenyl-3,4-dihydroisoquinol-2(1H)-yl)-methanone trifluoroacetate]",10.4 ± 1.4,–
"NC/C(=C/F)COc1ccc(C(=O)Nc2ccc(F)cc2)cc1Cl [TM65-Z, (Z)-N-(4-fluorophenyl)-4-((2-aminomethyl-3-fluoroallyl)oxy)-3-chloro-benzamide trifluoroacetate]",1.7 ± 0.3,–
"NCC(=CF)COc1ccc(C(=O)N2CCc3cc(C(F)(F)F)ccc3C2)cc1 [TM68, (4-(2-aminomethyl-3-fluoroallyloxy)phenyl)-(6-trifluoromethyl-3,4-dihydroisoquinol-2(1H)-yl)-methanone trifluoroacetate]",9.9 ± 1.8,–
"NCC(=CF)COc1ccc(C(=O)N2Cc3ccc(Cl)cc3C2)cc1 [TM71, (4-(2-aminomethyl-3-fluoroallyloxy)phenyl)-(5-chloroisoindolin-2-yl)-methanone trifluoroacetate]",2.4 ± 0.2,–
"NC/C(=C\F)COc1ccc(C(=O)N2CCc3c(Cl)cccc3C2)cc1F [TM73-E, (E)-(4-((2-aminomethyl-3-fluoroallyl)oxy)-3-fluorophenyl)-(5-chloro-3,4-di-hydroisoquinoline-2(1H)-yl)methanone trifluoroacetate]",4.2 ± 0.3,–
"NC/C(=C/F)COc1ccc(C(=O)N2CCc3c(Cl)cccc3C2)cc1F [TM73-Z, (Z)-(4-((2-aminomethyl-3-fluoroallyl)oxy)-3-fluorophenyl)-(5-chloro-3,4-di-hydroisoquinoline-2(1H)-yl)methanone trifluoroacetate]",3.7 ± 0.3,–
